In patent US9260425B2 (Genetech, Inc., priority 2011, dated 2016):

target: Pim-1 (Homo sapiens (Human), UniProt P11309); experiment: Pim kinase binding activity assay (Example 901), PIM-1 enzyme, Caliper microfluidic peptide phosphorylation; format: biochemical; settings: 20 pM PIM-1, 10 μM ATP, 1 μM FAM-peptide, 90 minutes at room temperature
Experimental: Pim Kinase Binding Activity
A fluorescent-labeled Pim-specific peptide substrate, was custom synthesized by American Peptide Company (Sunnyvale, Calif.). Reaction Buffer contained 10 mM HEPES, pH 7.2, 10 mM MgCl2, 0.01% Tween 20, 2 mM DTT. Termination Buffer contained 190 mM HEPES, pH 7.2, 0.015% Brij-35, 0.2% Coating Reagent 3 (Caliper Life Sciences, Hopkinton, Mass.), 20 mM EDTA. Separation Buffer contained 100 mM HEPES, pH 7.2, 0.015% Brij-35, 0.1% Coating Reagent 3, 1:200 Coating Reagent 8 (Caliper Life Sciences, Hopkinton, Mass.), 10 mM EDTA and 5% DMSO.
PIM reactions were carried out in a final volume of 10 μL per well in a 384-well plate. A standard enzymatic reaction, initiated by the addition of 5 μL 2×ATP and test compound to 5 μL of 2× enzyme and FAM-peptide, contained 20 pM PIM-1, 50 pM PIM-2, or 55 pM PIM-3, 1 μM FAM-peptide, and 10 μM ATP, in Reaction Buffer. After 90 minutes of incubation at room temperature, the phosphorylation reaction was stopped by the addition of 10 μL Termination Buffer. The product and substrate in each independent reaction were separated on a 12-sipper microfluidic chip (Caliper Life Sciences, Hopkinton, Mass.) run on a Caliper LC3000® (Caliper Life Sciences, Hopkinton, Mass.). The separation of product and substrate was optimized by choosing voltages and pressure using Caliper's Optimizer software (Hopkinton, Mass.). […] The product and substrate fluorophore were excited at 488 nm and detected at 530 nm. Substrate conversion was calculated from the electropherogram using HTS Well Analyzer software (Caliper Life Sciences, Hopkinton, Mass.). Ki values for the test compound were calculated.

Pim-1, sequence (P11309 whole entry): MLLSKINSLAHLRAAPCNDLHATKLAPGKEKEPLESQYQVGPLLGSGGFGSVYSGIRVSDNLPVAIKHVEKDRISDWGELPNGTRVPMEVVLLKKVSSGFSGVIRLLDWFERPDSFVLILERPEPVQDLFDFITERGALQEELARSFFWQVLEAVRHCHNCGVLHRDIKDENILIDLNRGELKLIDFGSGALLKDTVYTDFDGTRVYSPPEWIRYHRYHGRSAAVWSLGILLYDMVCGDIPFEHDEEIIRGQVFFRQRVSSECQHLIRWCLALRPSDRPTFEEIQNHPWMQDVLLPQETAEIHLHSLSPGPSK

SMILES | Ki
Cn1cc(-c2cc3c(-c4cccc(N5CCCCC(N)C5)n4)n[nH]c3cn2)cn1 (stereo not shown) [Example 226, 1-(6-(5-(1-methyl-1H-pyrazol-4-yl)-1H-pyrazolo[3,4-c]pyridin-3-yl)pyridin-2-yl)azepan-3-amine] | 0.051 nM
CCn1cc(-c2cc3c(-c4cccc(N5C[C@H]6CNC[C@H]6C5)n4)n[nH]c3cn2)cn1 [Example 395] | 0.404 nM
N[C@H]1CCC[C@H](Nc2cccc(-c3n[nH]c4cnc(-c5cccnc5)cc34)n2)C1 [Example 353, (1S,3S)-N1-(6-(5-(pyridin-3-yl)-1H-pyrazolo[3,4-c]pyridin-3-yl)pyridin-2-yl)cyclohexane-1,3-diamine] | 0.397 nM
N[C@H]1CCCN(c2cccc(-c3n[nH]c4cnc(N5CCOC5=O)cc34)n2)C1 [Example 374, (S)-3-(3-(6-(3-aminopiperidin-1-yl)pyridin-2-yl)-1H-pyrazolo[3,4-c]pyridin-5-yl)oxazolidin-2-one] | 85 nM
CC(C)(CN)Cn1cc(-c2n[nH]c3cnc(-c4cccnc4)cc23)ccc1=O [Example 379, 1-(3-amino-2,2-dimethylpropyl)-5-(5-(pyridin-3-yl)-1H-pyrazolo[3,4-c]pyridin-3-yl)pyridin-2(1H)-one] | 1.29 nM
N[C@H]1CCCN(Cc2n[nH]c3cnc(-c4cn[nH]c4)cc23)C1 [Example 111, (S)-1-((5-(1H-pyrazol-4-yl)-1H-pyrazolo[3,4-c]pyridin-3-yl)methyl)piperidin-3-amine] | 4000 nM
FC1(c2cccc(-c3n[nH]c4cnc(-c5cccnc5)cc34)n2)CCNCC1 [Example 421, 3-(6-(4-fluoropiperidin-4-yl)pyridin-2-yl)-5-(pyridin-3-yl)-1H-pyrazolo[3,4-c]pyridine] | 0.105 nM
Fc1cncc(-c2cc3c(-c4cccc(N5CCNCC5)n4)n[nH]c3cn2)c1 [Example 208, 5-(5-fluoropyridin-3-yl)-3-(6-(piperazin-1-yl)pyridin-2-yl)-1H-pyrazolo[3,4-c]pyridine] | 0.284 nM
Cn1cc(-c2cc3c(-c4cccc(-c5cnn(C)c5)n4)n[nH]c3cn2)cn1 [Example 184, 5-(1-methyl-1H-pyrazol-4-yl)-3-(6-(1-methyl-1H-pyrazol-4-yl)pyridin-2-yl)-1H-pyrazolo[3,4-c]pyridine] | 0.502 nM
NCCCCNc1cccc(-c2n[nH]c3cnc(-c4cccnc4)cc23)n1 [Example 283, N1-(6-(5-(pyridin-3-yl)-1H-pyrazolo[3,4-c]pyridin-3-yl)pyridin-2-yl)butane-1,4-diamine] | 0.257 nM
N[C@H]1C[C@@H](F)CN(c2cccc(-c3n[nH]c4cnc(-c5cccnc5)cc34)n2)C1 [Example 321, (3S,5R)-5-fluoro-1-(6-(5-(pyridin-3-yl)-1H-pyrazolo[3,4-c]pyridin-3-yl)pyridin-2-yl)piperidin-3-amine] | 0.0662 nM
N[C@@H]1CCC[C@@H](Nc2cccc(-c3n[nH]c4cnc(-c5cccnc5)cc34)n2)C1 [Example 352, (1R,3R)-N1-(6-(5-(pyridin-3-yl)-1H-pyrazolo[3,4-c]pyridin-3-yl)pyridin-2-yl)cyclohexane-1,3-diamine] | 0.025 nM
c1cc(-c2n[nH]c3cnc(-c4cnn(C5CC5)c4)cc23)nc(N2CCNCC2)c1 [Example 487, 5-(1-cyclopropyl-1H-pyrazol-4-yl)-3-(6-(piperazin-1-yl)pyridin-2-yl)-1H-pyrazolo[3,4-c]pyridine] | 0.106 nM
Cc1ccc(-c2n[nH]c3cnc(-c4cnn(C)c4)cc23)nc1N1CC(N2CCS(=O)(=O)CC2)C1 [Example 413, 4-(1-(3-methyl-6-(5-(1-methyl-1H-pyrazol-4-yl)-1H-pyrazolo[3,4-c]pyridin-3-yl)pyridin-2-yl)azetidin-3-yl)-1,1-dioxo thiomorpholine] | 1.02 nM
Cc1n[nH]c2cnc(-c3cnccc3N3CCC[C@@H](N)C3)cc12 [Example 119, (R)-1-(3-(3-methyl-1H-pyrazolo[3,4-c]pyridin-5-yl)pyridin-4-yl)piperidin-3-amine] | 1100 nM
CCc1cncc(-c2cc3c(-c4cccc(N5CCNCC5)n4)n[nH]c3cn2)c1 [Example 438, 5-(5-ethylpyridin-3-yl)-3-(6-(piperazin-1-yl)pyridin-2-yl)-1H-pyrazolo[3,4-c]pyridine] | 0.004 nM
CCn1cc(-c2cc3c(-c4ccc(=O)n(CC5(C(N)=O)CCC5)c4)n[nH]c3cn2)cn1 [Example 475, 1-((5-(5-(1-ethyl-1H-pyrazol-4-yl)-1H-pyrazolo[3,4-c]pyridin-3-yl)-2-oxopyridin-1(2H)-yl)methyl) cyclobutanecarboxamidc] | 4.49 nM

SMILES | Ki
c1cc(-c2n[nH]c3cnc(-c4cnn(CC5COC5)c4)cc23)nc(N2CCNCC2)c1 [Example 416, 5-(1-(oxetan-3-ylmethyl)-1H-pyrazol-4-yl)-3-(6-(piperazin-l-yl)pyridin-2-yl)-1H-pyrazolo[3,4-c]pyridine] | 11.3 nM
c1cncc(-c2cc3c(-c4cc[nH]n4)n[nH]c3cn2)c1 [Example 193, 3-(1H-pyrazol-3-yl)-5-(pyridin-3-yl)-1H-pyrazolo[3,4-c]pyridine] | 2.63 nM
Cn1cc(-c2cc3c(-c4ccc(Br)c(N5CC(N6CCS(=O)(=O)CC6)C5)n4)n[nH]c3cn2)cn1 [Example 387, 4-(1-(3-bromo-6-(5-(1-methyl-1H-pyrazol-4-yl)-1H-pyrazolo[3,4-c]pyridin-3-yl)pyridin-2-yl)azetidin-3-yl)-1,1-dioxothiomorpholine] | 1.59 nM
FCCn1cc(-c2cc3c(-c4cccc(N5CCCNCC5)n4)n[nH]c3cn2)cn1 [Example 489, 3-(6-(1,4-diazepan-1-yl)pyridin-2-yl)-5-(1-(2-fluoroethyl)-1H-pyrazol-4-yl)-1H-pyrazolo[3,4-c]pyridine] | 0.014 nM
Fc1ccccc1-c1n[nH]c2cnc(-c3cnccc3O[C@H]3CCCNC3)cc12 [Example 148, (S)-3-(2-fluorophenyl)-5-(4-(piperidin-3-yloxy)pyridin-3-yl)-1H-pyrazolo[3,4-c]pyridin] | 0.342 nM
Cc1n[nH]c2cnc(-c3cnn(C)c3)cc12 [Example 127, 3-methyl-5-(1-methyl-1H-pyrazol-4-yl)-1H-pyrazolo[3,4-c]pyridine] | 261 nM
Cc1ccc(-c2n[nH]c3cnc(-c4cccnc4)cc23)nc1 [Example 275, 3-(5-methylpyridin-2-yl)-5-(pyridin-3-yl)-1H-pyrazolo[3,4-c]pyridine] | 6.92 nM
CCc1ccc(-c2n[nH]c3cnc(-c4cnn(CC)c4)cc23)nc1N1CCC[C@H](N)C1 [Example 477, (S)-1-(3-ethyl-6-(5-(1-ethyl-1H-pyrazol-4-yl)-1H-pyrazolo[3,4-c]pyridin-3-yl)pyridin-2-yl)piperidin-3-amine] | 0.013 nM
Cc1n[nH]c2cnc(-c3cnccn3)cc12 [Example 118, 3-methyl-5-(pyrazin-2-yl)-1H-pyrazolo[3,4-c]pyridine] | 620 nM
c1cncc(-c2cc3c(N4CCCC4)n[nH]c3cn2)c1 [Example 252, 5-(pyridin-3-yl)-3-(pyrrolidin-1-yl)-1H-pyrazolo[3,4-c]pyridine] | 10 nM
CCn1cc(-c2cc3c(-c4ccc(C)c(N5CCNCC5)n4)n[nH]c3cn2)cn1 [Example 432, 5-(1-ethyl-1H-pyrazol-4-yl)-3-(5-methyl-6-(piperazin-1-yl)pyridin-2-yl)-1H-pyrazolo[3,4-c]pyridine] | 0.055 nM
FC(F)(F)c1cccc(-c2n[nH]c3cnc(-c4cccnc4)cc23)c1 [Example 126, 5-(pyridin-3-yl)-3-(3-(trifluoromethyl)phenyl)-1H-pyrazolo[3,4-c]pyridine] | 15.9 nM
OC1CCN(c2cccc(-c3n[nH]c4cnc(-c5cccnc5)cc34)n2)CC1 [Example 272, 1-(6-(5-(pyridin-3-yl)-1H-pyrazolo[3,4-c]pyridin-3-yl)pyridin-2-yl)piperidin-4-ol] | 0.149 nM
N[C@H]1CCN(c2cccc(-c3n[nH]c4cnc(-c5cccnc5)cc34)n2)C1 [Example 268, (S)-1-(6-(5-(pyridin-3-yl)-1H-pyrazolo[3,4-c]pyridin-3-yl)pyridin-2-yl)pyrrolidin-3-amine] | 0.0268 nM
CCc1ccc(-c2n[nH]c3cnc(-c4cnn(C)c4)cc23)nc1N1CCC[C@H](N)C1 [Example 429, (S)-1-(3-ethyl-6-(5-(1-methyl-1H-pyrazol-4-yl)-1H-pyrazolo[3,4-c]pyridin-3-yl)pyridin-2-yl)piperidin-3-amine] | 0.022 nM
Cn1cc(-c2cc3c(-c4cccc(N5CCC[C@](C)(O)C5)n4)n[nH]c3cn2)cn1 [Example 423, (S)-3-methyl-1-(6-(5-(1-methyl-1H-pyrazol-4-yl)-1H-pyrazolo[3,4-c]pyridin-3-yl)pyridin-2-yl)piperidin-3-ol] | 0.128 nM
N[C@@H]1CCCN(c2nccc(-c3n[nH]c4cnc(-c5cccnc5)cc34)n2)C1 [Example 300, (R)-1-(4-(5-(pyridin-3-yl)-1H-pyrazolo[3,4-c]pyridin-3-yl)pyrimidin-2-yl)piperidin-3-amine] | 0.07 nM
